Tests used:
[1] = molecular target: JH2 domain of human Tyk2 (Homo sapiens (Human), UniProt P29597); assay: JH2 Biochemical Assay (TR-FRET probe displacement); type: binding; details: JH2 domain of human Tyk2, TR-FRET probe displacement
[2] = molecular target: Tyk2 (Homo sapiens (Human), UniProt P29597); assay: pSTAT4 Cell Assay (MSD, NK92 cells); type: cell-based; details: MSD
Sequence of Tyk2 (P29597 whole entry): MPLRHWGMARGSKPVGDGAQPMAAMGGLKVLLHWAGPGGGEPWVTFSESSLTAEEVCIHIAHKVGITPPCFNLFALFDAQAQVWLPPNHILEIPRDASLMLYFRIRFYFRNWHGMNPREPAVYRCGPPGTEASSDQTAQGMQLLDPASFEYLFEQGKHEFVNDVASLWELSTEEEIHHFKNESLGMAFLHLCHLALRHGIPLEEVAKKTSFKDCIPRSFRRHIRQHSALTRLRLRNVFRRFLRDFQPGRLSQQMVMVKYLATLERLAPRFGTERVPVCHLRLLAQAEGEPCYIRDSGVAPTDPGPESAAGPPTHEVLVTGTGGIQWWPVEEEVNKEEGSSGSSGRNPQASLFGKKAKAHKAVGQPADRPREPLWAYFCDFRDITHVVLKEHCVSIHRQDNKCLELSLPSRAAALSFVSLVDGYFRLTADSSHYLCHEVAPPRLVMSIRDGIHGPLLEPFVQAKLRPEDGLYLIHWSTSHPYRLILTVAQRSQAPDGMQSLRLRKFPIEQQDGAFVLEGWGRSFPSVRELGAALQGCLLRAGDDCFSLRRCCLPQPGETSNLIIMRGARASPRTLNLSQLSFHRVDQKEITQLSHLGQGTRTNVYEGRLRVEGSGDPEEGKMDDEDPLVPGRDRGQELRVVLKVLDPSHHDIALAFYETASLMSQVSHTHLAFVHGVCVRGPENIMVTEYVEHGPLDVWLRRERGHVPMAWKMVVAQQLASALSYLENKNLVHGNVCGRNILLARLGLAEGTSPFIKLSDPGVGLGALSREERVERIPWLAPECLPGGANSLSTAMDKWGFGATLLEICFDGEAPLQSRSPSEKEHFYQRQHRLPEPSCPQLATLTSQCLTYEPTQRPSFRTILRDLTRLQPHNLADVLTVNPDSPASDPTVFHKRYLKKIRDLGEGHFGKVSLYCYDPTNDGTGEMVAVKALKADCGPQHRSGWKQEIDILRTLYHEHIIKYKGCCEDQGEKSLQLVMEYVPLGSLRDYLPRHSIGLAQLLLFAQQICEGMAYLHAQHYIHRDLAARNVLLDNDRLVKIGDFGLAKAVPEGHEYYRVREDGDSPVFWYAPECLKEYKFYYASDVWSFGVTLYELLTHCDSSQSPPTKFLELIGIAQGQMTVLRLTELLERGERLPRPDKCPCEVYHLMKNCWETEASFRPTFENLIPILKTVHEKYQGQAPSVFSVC

Sequence of JH2 domain of human Tyk2 (P29597 575-876): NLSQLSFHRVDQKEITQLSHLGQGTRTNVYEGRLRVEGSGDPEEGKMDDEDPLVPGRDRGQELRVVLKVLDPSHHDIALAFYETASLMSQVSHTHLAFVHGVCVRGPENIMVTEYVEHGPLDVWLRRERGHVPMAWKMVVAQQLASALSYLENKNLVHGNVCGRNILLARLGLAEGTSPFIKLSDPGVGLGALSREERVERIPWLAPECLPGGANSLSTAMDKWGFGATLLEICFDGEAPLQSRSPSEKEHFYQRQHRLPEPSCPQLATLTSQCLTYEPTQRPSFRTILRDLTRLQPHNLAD

SMILES | IC50 [1] [nM] | IC50 [2] [nM]
CC(=O)Nc1cc(Nc2cc(C)nc(C(C)(F)F)n2)c(-c2ccn3ncnc3n2)cn1 [Example 536, N-(5-([1,2,4]triazolo[1,5-a]pyrimidin-5-yl)-4-((2-(1,1-difluoroethyl)-6-methylpyrimidin-4-yl)amino)pyridin-2-yl)acetamide] | ≤ 10 | ≤ 10
CC(=O)Nc1cc(Nc2ccnc(C(C)(F)F)n2)c(-c2ccn3ncnc3n2)cn1 [Example 537, N-(5-([1,2,4]triazolo[1,5-a]pyrimidin-5-yl)-4-((2-(1,1-difluoroethyl)pyrimidin-4-yl)amino)pyridin-2-yl)acetamide] | ≤ 10 | 10 to 100
CC(=O)Nc1cc(Nc2cc(C)nc(C(C)(C)F)n2)c(-c2ccn3nccc3n2)cn1 [Example 538, N-(4-((2-(2-fluoropropan-2-yl)-6-methylpyrimidin-4-yl)amino)-5-(pyrazolo[1,5-a]pyrimidin-5-yl)pyridin-2-yl)acetamide] | ≤ 10 | ≤ 10
CC(=O)Nc1cc(Nc2ccnc(C(C)(F)F)n2)c(-c2ccn3nccc3n2)cn1 [Example 539, N-(4-((2-(1,1-difluoroethyl)pyrimidin-4-yl)amino)-5-(pyrazolo[1,5-a]pyrimidin-5-yl)pyridin-2-yl)acetamide] | ≤ 10 | ≤ 10
CC(=O)Nc1cc(Nc2cc(C)nc(C(C)(F)F)n2)c(-c2ccn3nccc3n2)cn1 [Example 540, N-(4-((2-(1,1-difluoroethyl)-6-methylpyrimidin-4-yl)amino)-5-(pyrazolo[1,5-a]pyrimidin-5-yl)pyridin-2-yl)acetamide] | ≤ 10 | ≤ 10
CC(=O)Nc1cc(Nc2cc(C)nc(C(C)(F)F)n2)c(-c2cc3n(n2)CCN(C)C3=O)cn1 [Example 541, N-(4-((2-(1,1-difluoroethyl)-6-methylpyrimidin-4-yl)amino)-5-(5-methyl-4-oxO4,5,6,7-tetrahydropyrazolo[1,5-a]pyrazin-2-yl)pyridin-2-yl)acetamide] | ≤ 10 | 10 to 100
CCS(=O)(=O)n1ccc(-c2cnc(NC(C)=O)cc2Nc2cc(C)nc(C(C)(F)F)n2)n1 [Example 542, N-(4-((2-(1,1-difluoroethyl)-6-methylpyrimidin-4-yl)amino)-5-(1-(ethylsulfonyl)-1H-pyrazol-3-yl)pyridin-2-yl)acetamide] | ≤ 10 | ≤ 10
CC(=O)Nc1cc(Nc2cc(C)nc(C(C)(F)F)n2)c(-c2ccc(S(C)(=O)=O)cn2)cn1 [Example 543, N-(4′-((2-(1,1-difluoroethyl)-6-methylpyrimidin-4-yl)amino)-5-(methylsulfonyl)-[2,3′-bipyridin]-6′-yl)acetamide] | ≤ 10 | ≤ 10
[2H]C([2H])([2H])N1CCn2nc(-c3cnc(NC(C)=O)cc3Nc3cc(C)nc(C(C)(F)F)n3)cc2C1 [Example 545, N-(4-((2-(1,1-difluoroethyl)-6-methylpyrimidin-4-yl)amino)-5-(5-(methyl-d3)-4,5,6,7-tetrahydropyrazolo[1,5-a]pyrazin-2-yl)pyridin-2-yl)acetamide] | ≤ 10 | ≤ 10
COCCOc1nccc(Nc2cc(NC(C)=O)ncc2-c2ccn(C)n2)n1 [Example 549, N-(4-((2-(2-methoxyethoxy)pyrimidin-4-yl)amino)-5-(1-methyl-1H-pyrazol-3-yl)pyridin-2-yl)acetamide] | ≤ 10 | 100 to 1000
COCCOc1ccnc(Nc2cc(NC(C)=O)ncc2-c2ccn(C)n2)n1 [Example 550, N-(4-((4-(2-methoxyethoxy)pyrimidin-2-yl)amino)-5-(1-methyl-1H-pyrazol-3-yl)pyridin-2-yl)acetamide] | ≤ 10 | 100 to 1000
COc1nc(C)cc(Nc2cc(NC(C)=O)ncc2-c2ccn(C)n2)n1 [Example 551, N-(4-((2-methoxy-6-methylpyrimidin-4-yl)amino)-5-(1-methyl-1H-pyrazol-3-yl)pyridin-2-yl)acetamide] | ≤ 10 | 10 to 100

From US20260028365A1 (BIOGEN MA INC., priority 2022, published 2026)
